Measurements published in PMC4867239 (Journal of biotechnology, 2016).
Ends that are not written are not given here.

Key:
S. aureus = assay: microbe, parasite or virus in culture; conditions: Staphylococcus aureus, read-out: active at (MIC assay)
[1] = Plasma PK in mice, 14 days of daily IV dosing; type: in vivo, Mouse (CD-1); conditions: for AUC(0-t) / Cmax / MRT / Tmax: CD-1, mouse, plasma, iv
[2] = Plasma PK in cynomolgus monkeys, 14 days of daily IV dosing; type: in vivo, Cynomolgus macaques; conditions: for AUC(0-t) / Cmax / MRT: cynomolgus monkey, plasma, iv
[3] = Phase 1 SAD/MAD plasma PK in healthy volunteers; type: in vivo, Human; conditions: humans
[4] = Quantitative whole body autoradiography with [14C]SGX94; type: in vivo, male CD-1 mice

Q: For `CC[C@H]1OC(=O)[C@H](C)[C@@H](O[C@H]2C[C@@](C)(OC)[C@@H](O)[C@H](C)O2)[C@H](C)[C@@H](O[C@@H]2O[C@H](C)C[C@H](N(C)C)[C@H]2O)[C@](C)(O)C[C@@H](C)C(=O)[C@H](C)[C@@H](O)[C@]1(C)O` [erythromycin], which MIC (S. aureus) is on record?
A: The MIC was under 3.12 µg/mL.

Q: What does the source list for RIVPA-NH2 [SGX94, dusquetide]?
A: AUC(0-t) ([1]; female, 20 mg/kg): 1700 ng·h/mL; Cmax ([1]; female, 20 mg/kg): 8080 ng/mL; MRT ([1]; female, 20 mg/kg): 2 min; AUC(0-t) ([1]; female, 60 mg/kg): 6520 ng·h/mL; Cmax ([1]; female, 60 mg/kg): 27100 ng/mL; MRT ([1]; female, 60 mg/kg): 6.5 min; AUC(0-t) ([1]; female, 90 mg/kg): 10400 ng·h/mL; Cmax ([1]; female, 90 mg/kg): 45800 ng/mL; MRT ([1]; female, 90 mg/kg): 1.8 min; AUC(0-t) ([1]; male, 20 mg/kg): 4500 ng·h/mL; Cmax ([1]; male, 20 mg/kg): 23000 ng/mL; MRT ([1]; male, 20 mg/kg): 2.3 min; Tmax ([1]; male, 20 mg/kg): 3 min; AUC(0-t) ([1]; male, 60 mg/kg): 9290 ng·h/mL; Cmax ([1]; male, 60 mg/kg): 41200 ng/mL; MRT ([1]; male, 60 mg/kg): 1.8 min; Tmax ([1]; male, 60 mg/kg): 3 min; AUC(0-t) ([1]; male, 90 mg/kg): 17400 ng·h/mL; Cmax ([1]; male, 90 mg/kg): 72200 ng/mL; MRT ([1]; male, 90 mg/kg): 1.6 min; Tmax ([1]; male, 90 mg/kg): 3 min; PK half-life ([1]; mouse): very short (minutes); AUC(0-t) ([2]; female, 20 mg/kg): 2410 ± 1230 ng·h/mL; Cmax ([2]; female, 20 mg/kg): 12400 ± 6410 ng/mL; MRT ([2]; female, 20 mg/kg): 6.6 min; AUC(0-t) ([2]; female, 80 mg/kg): 3360 ± 4710 ng·h/mL; Cmax ([2]; female, 80 mg/kg): 16900 ± 24800 ng/mL; MRT ([2]; female, 80 mg/kg): 55 min; AUC(0-t) ([2]; female, 160 mg/kg): 36300 ± 26400 ng·h/mL; Cmax ([2]; female, 160 mg/kg): 179000 ± 132000 ng/mL; MRT ([2]; female, 160 mg/kg): 6.6 min; AUC(0-t) ([2]; male, 20 mg/kg): 1330 ± 438 ng·h/mL; Cmax ([2]; male, 20 mg/kg): 6650 ± 2520 ng/mL; MRT ([2]; male, 20 mg/kg): 7.8 min; AUC(0-t) ([2]; male, 80 mg/kg): 19400 ± 6910 ng·h/mL; Cmax ([2]; male, 80 mg/kg): 85900 ± 25800 ng/mL; MRT ([2]; male, 80 mg/kg): 7.8 min; AUC(0-t) ([2]; male, 160 mg/kg): 46000 ± 9570 ng·h/mL; Cmax ([2]; male, 160 mg/kg): 206000 ± 33400 ng/mL; MRT ([2]; male, 160 mg/kg): 7.2 min; PK half-life ([2]; non-human primate): very short (minutes); PK half-life [3]: very short (minutes); major analyte in blood ([4]; 20 mg/kg [14C]SGX94 IV, by 5 min post-dose): a metabolite of SGX94; penetration into CNS, bone, white adipose and eye lens ([4]; QWBA, 20 mg/kg [14C]SGX94 IV bolus, male CD-1 mice): low penetration
